According to patent publication US20260209206A1, “STAT6 DEGRADERS AND USES THEREOF” (Kymera Therapeutics, Inc., priority 2023, published 2026):

Assays:
STAT6 [1] = biological target: T1, STAT6 (Homo sapiens, UniProt P42226); test: STAT6 MSD degradation in A549 cells; format: cell-based; details: 24 h
T1 construct: endogenous in cells; host or cells: A549 (STAT6-HiBiT), endogenous locus tagged
T1 sequence (P42226 1-847): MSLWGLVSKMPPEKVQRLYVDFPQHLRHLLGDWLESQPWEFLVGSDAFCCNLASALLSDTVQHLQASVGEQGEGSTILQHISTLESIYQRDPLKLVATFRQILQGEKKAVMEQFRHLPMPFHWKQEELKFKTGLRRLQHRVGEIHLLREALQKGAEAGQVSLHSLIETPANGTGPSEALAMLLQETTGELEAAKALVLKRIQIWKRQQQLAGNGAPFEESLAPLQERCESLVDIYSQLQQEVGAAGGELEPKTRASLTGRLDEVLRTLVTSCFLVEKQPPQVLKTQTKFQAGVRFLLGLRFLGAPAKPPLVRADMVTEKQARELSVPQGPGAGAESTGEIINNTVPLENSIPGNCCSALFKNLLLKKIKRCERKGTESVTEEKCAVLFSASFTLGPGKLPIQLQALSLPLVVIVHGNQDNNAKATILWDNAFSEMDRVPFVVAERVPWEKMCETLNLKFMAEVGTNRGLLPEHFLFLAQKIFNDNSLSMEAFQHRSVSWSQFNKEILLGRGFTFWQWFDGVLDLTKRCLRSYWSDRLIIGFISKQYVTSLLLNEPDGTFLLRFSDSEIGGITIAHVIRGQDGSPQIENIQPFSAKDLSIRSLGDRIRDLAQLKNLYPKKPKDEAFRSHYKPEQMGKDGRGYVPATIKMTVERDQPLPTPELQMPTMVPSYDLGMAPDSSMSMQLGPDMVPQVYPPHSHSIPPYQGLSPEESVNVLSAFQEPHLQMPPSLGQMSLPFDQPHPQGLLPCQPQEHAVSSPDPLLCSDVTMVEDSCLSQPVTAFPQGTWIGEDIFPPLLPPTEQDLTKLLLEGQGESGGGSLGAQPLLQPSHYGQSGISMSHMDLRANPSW
Experimental: Degradation of STAT6 in cells was quantitatively measured using Meso Scale Discovery (MSD) technology. A549 cells were seeded in 96-well plates with a density of 1.5×10e4 to 5×10e5 cells per well in 100 μl fresh media. Compounds were then added to the assay plates with a final top concentration of up to 10 uM in a 1:3 dilution series with total of 9 doses. The assay plates were then incubated for 4 to 24 hours at 37° C. under 5% CO2. The assay plates were then centrifuged for 5 minutes and the cell pellets were treated with 100 μl/well RIPA lysis buffer (Boston Bioproducts, BP-115D) with protease and phosphatase inhibitors (Roche, 05892791001 and 04906837001). To prepare the MSD assay plates (MSD, L15XA), the plates were coated with the capture antibody (Abnova, H00006778) in PBS, at 40 μl/well. The plates were then incubated overnight at 4° C., washed 1 time with […] TBST buffer (Cell Signaling Technology, #9997S) and blocked with 150 μl/well blocking buffer (MSD, R93BA-4). Cell lysates were then added to MSD assay plates and the plates were incubated at room temperature for 1 hour. The plates were then washed 3 times with 150 μl/well TBST buffer and 25 μl/well primary detection antibody (Cell Signaling Technology, #5397S). The assay plates were then incubated at room temperature for 1 hour, washed 3 times with 150 μl/well TBST buffer, and 25 μl/well secondary detection antibody, SULFO-TAG anti-rabbit antibody (MSD, R32AB-1) were added. The assay plates were then incubated at room temperature for 1 hour, washed 3 times with 150 μl/well TBST buffer, and 150 μl/well MSD reading buffer (MSD, R92TC-2) were added. The plates were then analyzed by an MSD reader. The data was analyzed by GraphPad Prism and the dose dependent STAT6 degradation was fit using the four-parameter inhibitor vs. response nonlinear regression.
The letter codes for DC50 (nM) include: A (<1 nM); B (1-10 nM); C (>10-100 nM); D (>100-1000 nM); E (>1000 nM); and F (not tested). The letter codes for Dmax (%) include: A (>90%); B (>70-90%); C (>50-70%); D (<50%); and E (not tested).

[2] = biological target: T2, biotinylated truncated STAT6 (123-632)-avi (Homo sapiens, UniProt P42226); test: STAT6 HTRF binding assay; details: 0.15 nM STAT6 (123-632)-avi, 20 nM fluorescein-labeled probe, 30 minutes at room temperature
T2 construct: 0.15 nM biotinylated truncated STAT6 (123-632)-avi purified from E. coli; made in house; host or cells: E. coli
T2 sequence (P42226 123-632 limits assumed): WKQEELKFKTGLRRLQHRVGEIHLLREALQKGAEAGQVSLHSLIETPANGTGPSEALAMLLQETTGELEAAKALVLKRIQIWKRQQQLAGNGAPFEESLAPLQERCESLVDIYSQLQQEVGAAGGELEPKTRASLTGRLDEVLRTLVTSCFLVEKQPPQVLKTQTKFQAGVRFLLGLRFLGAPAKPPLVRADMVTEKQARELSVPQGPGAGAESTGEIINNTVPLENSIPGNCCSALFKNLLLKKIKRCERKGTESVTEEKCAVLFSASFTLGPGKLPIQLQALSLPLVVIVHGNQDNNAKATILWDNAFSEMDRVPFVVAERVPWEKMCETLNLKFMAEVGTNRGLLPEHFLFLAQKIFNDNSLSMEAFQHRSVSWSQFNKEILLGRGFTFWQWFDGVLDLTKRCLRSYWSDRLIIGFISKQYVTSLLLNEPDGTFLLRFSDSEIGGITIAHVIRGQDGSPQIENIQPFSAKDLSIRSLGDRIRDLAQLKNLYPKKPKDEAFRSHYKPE
Experimental: HTRF binding assays were perforned using 0.15 nM biotinylated truncated STAT6 (123-632)-avi purified from E. coli, 1× Streptavidin-terbium (CisBio) prepared by mixing SA-Tb in PPI detection buffer (CisBio), 20 nM proprietary fluorescein-labeled probe, and test compounds in assay buffer consisting of 50 mM HEPES-Na pH 7.5, 100 mM NaCl, 1 mM EDTA, 2 mM DTT, 0.1% Tween-20 with a final volume of 20 uL. Compound stocks were dissolved at 10 mM in 100% DMSO and 11 point titration with 3 fold serial dilution was performed in white, opaque 384 well microplates. Reaction plates were incubated at room temperature for 30 minutes. Plates were centrifuged at low rpm for 5 mins, and the ratio of fluorescence intensities were measured at emission wavelengths for fluorescein acceptor (520 nm) and terbium donor (495 nm) on Envision Plate reader. % Inhibition was calculated from the 520/495 ratio generated by using proprietary positive control compound for 100% inhibition and DMSO only reactions for 0% inhibition. Data was processed and dose response curves were generated using GraphPad Prism to determine the concentration required for inhibiting 50% of the HTRF signal (IC50).
The letter codes for IC50 (μM) include: A (<0.1 μM); B (0.1-1 μM); C (>1-10 μM); D (>10-100 μM); E (>100 μM); and F (not tested).

STAT6 [3] = biological target: T1, STAT6; test: STAT6 HiBiT degradation in A549 (STAT6-HiBiT) cells; format: cell-based; details: 24 h
Experimental: Degradation of STAT6 in endogenously tagged STAT6-HiBiT A549 cells was quantitatively measured using the Nano-Glo HiBiT Lytic Detection System (Promega, 3040). A549 (STAT6-HiBiT) cells were seeded in 384-well plates with a density of 1.25k cells per well in 20 μl fresh media. Compounds were then added to the assay plates using the Apricot S3 with a final top concentration of up to 10 uM in a 4-fold dilution series with total of 10 doses. The assay plates were then incubated for 24 hours at 37° C. under 5% CO2. At the assay endpoint, 20 μL of Nano-Glo HiBiT Lytic Reagent was added to each well and agitated on a plate shaker at 300 rpm for 10 minutes at room temperature. Luminescence was read on PHERAStar FSX Instrument (Is integration time). The data was analyzed by GraphPad Prism and the dose dependent STAT6 degradation was fit using the four-parameter inhibitor vs. response nonlinear regression.
The letter codes for DC50 (nM) include: A (<1 nM): B (1-10 nM); C (>10-100 nM); D (>100-1000 nM); E (>1000 nM); and F (not tested). The letter codes for Dmax (%) include: A (>90%); B (>70-90%); C (>50-70%); D (<50%): and E (not tested).

| Structure (SMILES) | DC50 (STAT6 [1]) [nM] | Dmax (STAT6 [1]) [%] | IC50 [2] [nM] | DC50 (STAT6 [3]) [nM] | Dmax (STAT6 [3]) [%] |
| --- | --- | --- | --- | --- | --- |
| CN(C)C(=O)c1cc2ccc(C3=CCCN(C(=O)C4Cc5c(cccc5OCCOCCOCCOCCOCCc5cccc6c5n(C)c(=O)n6C5CCC(=O)NC5=O)CN4C=O)C3)cc2[nH]1 (stereo not drawn) [I-61] | > 1000 | < 50 | – | – | – |
| CN(C)C(=O)c1cc2ccc(C3=CCCN(C(=O)C4Cc5c(cccc5OCCOCCOCCOCCc5cccc6c5n(C)c(=O)n6C5CCC(=O)NC5=O)CN4C=O)C3)cc2[nH]1 (stereo not drawn) [I-98] | > 1000 | < 50 | 10000 to 100000 | – | – |
| CN(C)C(=O)c1cc2ccc(C3=CCCN(C(=O)C4Cc5c(cccc5OCCOCCOCCOCCOCCc5ccc6c(c5)n(C)c(=O)n6C5CCC(=O)NC5=O)CN4C=O)C3)cc2[nH]1 (stereo not drawn) [I-105] | > 1000 | < 50 | – | – | – |
| COc1cc(N2CCN(CCc3cccc4c3n(C)c(=O)n4C3CCC(=O)NC3=O)CC2)ccc1-c1cc(C2=CCCN(C(=O)CCn3ccnn3)C2)c(F)c2cnccc12 (stereo not drawn) [I-1270] | – | – | 1000 to 10000 | > 1000 | < 50 |
| COc1cc(N2CCN(CCc3cccc4c3n(C)c(=O)n4C3CCC(=O)NC3=O)CC2)ccc1-c1cc(C2=CCCN(C(=O)CCn3ccnn3)C2)c(F)c2ccncc12 (stereo not drawn) [I-1271] | – | – | 1000 to 10000 | > 1000 | < 50 |
| COc1cc(N2CCN(CCc3cccc4c3n(C)c(=O)n4C3CCC(=O)NC3=O)CC2)ccc1-c1cc(Nc2ccccn2)c(F)c(C2=CCCN(C(=O)CCn3ccnn3)C2)c1 (stereo not drawn) [I-1272] | – | – | 100 to 1000 | < 1 | > 90 |
| COc1cc(N2CCN(CCc3cccc4c3n(C)c(=O)n4C3CCC(=O)NC3=O)CC2)ccc1-c1cc(C2=CCCN(C(=O)CCn3ccnn3)C2)ccc1C(=O)N(C)C (stereo not drawn) [I-1282] | – | – | 10000 to 100000 | > 1000 | < 50 |
| COc1cc(N2CCN(CCc3cccc4c3n(C)c(=O)n4C3CCC(=O)NC3=O)CC2)ccc1-c1cc(C2CCCCN(C(=O)CCn3ccnn3)C2)c(F)c2[nH]c(C(=O)N(C)C)cc12 (stereo not drawn) [I-1292] | – | – | – | < 1 | > 90 |
| COc1cc(N2CCN(CCc3cccc4c3n(C)c(=O)n4C3CCC(=O)NC3=O)CC2)ccc1-c1cc(C2=CCCN(C(=O)CCn3ccnn3)C2)cc2ccc(C(=O)N(C)C)cc12 (stereo not drawn) [I-1293] | – | – | < 100 | < 1 | > 90 |
| COc1cc(N2CCN(CCc3cccc4c3n(C)c(=O)n4C3CCC(=O)NC3=O)CC2)ccc1-c1cc(-c2cccc(C(=O)N(C)C)c2)c(F)c2[nH]c(C(=O)N(C)C)cc12 (stereo not drawn) [I-1302] | – | – | 1000 to 10000 | 1 to 10 | 70 to 90 |
| COc1cc(N2CCN(CCc3cccc4c3n(C)c(=O)n4C3CCC(=O)NC3=O)CC2)ccc1-c1cc(C2=CCCN(C(=O)CCn3ccnn3)C2)ccc1-n1ccccc1=O (stereo not drawn) [I-1309] | – | – | – | > 1000 | < 50 |
| COc1cc(N2CCN(CCc3cccc4c3n(C)c(=O)n4C3CCC(=O)NC3=O)CC2)ccc1-c1cc(C(=O)N(C)C)ccc1C1=CCCN(C(=O)CCn2ccnn2)C1 (stereo not drawn) [I-1323] | – | – | 100 to 1000 | 100 to 1000 | 70 to 90 |
| COc1cc(N2CCN(CCc3cccc4c3n(C)c(=O)n4C3CCC(=O)NC3=O)CC2)ccc1-c1cc(NC(=O)CCn2ccnn2)ccc1-c1ncc(C(=O)N(C)C)[nH]1 (stereo not drawn) [I-1324] | – | – | 10000 to 100000 | > 1000 | < 50 |
| COc1cc(N2CCN(CCc3cccc4c3n(C)c(=O)n4C3CCC(=O)NC3=O)CC2)ccc1-c1cc(C2=CCCN(C(=O)CCn3ccnn3)C2)cc2c1CN(C(=O)N(C)C)C2 (stereo not drawn) [I-1334] | – | – | 1000 to 10000 | 10 to 100 | 70 to 90 |
| COc1cc(N2CCN(CCc3cccc4c3n(C)c(=O)n4C3CCC(=O)NC3=O)CC2)ccc1-c1cc(C2=CCCN(C(=O)CCn3ccnn3)C2)cnc1CNC(=O)N(C)C (stereo not drawn) [I-1336] | – | – | 1000 to 10000 | > 1000 | < 50 |
| COc1cc(N2CCN(CCc3cccc4c3n(C)c(=O)n4C3CCC(=O)NC3=O)CC2)ccc1-c1cc(C2=CCCN(C(=O)CCn3ccnn3)C2)cc2cc(C(=O)N(C)C)cnc12 (stereo not drawn) [I-1338] | – | – | 10000 to 100000 | > 1000 | < 50 |
| COc1cc(N2CCN(CCc3cccc4c3n(C)c(=O)n4C3CCC(=O)NC3=O)CC2)ccc1-c1cc(C2=CCCN(C(=O)CCn3ccnn3)C2)cc2ccncc12 (stereo not drawn) [I-1401] | – | – | 10000 to 100000 | – | – |
